{"source": "ChEMBL document CHEMBL1157218", "about": "“Cycloviolacin H4, a hydrophobic cyclotide from Viola hederaceae” (J Nat Prod, 2006)", "key": {"[1]": {"experiment": "Toxicity against human type A red blood cells assessed as hemolytic activity after 1hr", "format": "cell-based, Erythrocyte", "details": "read-out: HD50"}, "[2]": {"experiment": "Toxicity against human type A red blood cells assessed as hemolytic activity at 80 uM after 1 ht", "format": "cell-based, Erythrocyte", "details": "read-out: Activity"}}, "note": "Bridge positions count the residues as written; N and C are the ends. Peptide text beside a SMILES is read from it."}
{"smiles": "CC[C@H](C)[C@@H]1NC(=O)CNC(=O)[C@H](CC(N)=O)NC(=O)[C@H](Cc2ccc(O)cc2)NC(=O)[C@@H]2CSSC[C@@H]3NC(=O)[C@@H]4CCCN4C(=O)[C@H]([C@@H](C)CC)NC(=O)[C@H](Cc4c[nH]c5ccccc45)NC(=O)[C@H](C(C)C)NC(=O)[C@@H]4CSSC[C@H](NC(=O)[C@H](CO)NC(=O)[C@H](CSSC[C@H](NC(=O)[C@@H]5CCCN5C1=O)C(=O)N[C@@H](C)C(=O)N[C@@H](CCC(=O)O)C(=O)N[C@@H](CO)C(=O)N4)NC(=O)CNC(=O)[C@H](CC(C)C)NC(=O)[C@H](CC(C)C)NC(=O)[C@H](C)NC(=O)[C@H]([C@@H](C)O)NC(=O)[C@H](C(C)C)NC(=O)[C@H]([C@@H](C)O)NC3=O)C(=O)N[C@@H](CO)C(=O)N[C@@H](CC(N)=O)C(=O)N[C@@H](CC(N)=O)C(=O)N[C@@H](C(C)C)C(=O)N2", "note": "[cycloviolacin H4] (cyclo(AESCVWIPCTVTALLGCSCSNNVCYNGIPC); disulfide 4-19, 9-24, 17-30)", "values": [{"measurement": "HC50 at 1 h", "setting": "[1]", "result": 5.5, "unit": "µM"}]}
{"smiles": "CC[C@H](C)[C@@H]1NC(=O)[C@H]([C@@H](C)O)NC(=O)CNC(=O)CNC(=O)[C@H](CC(N)=O)NC(=O)[C@H]([C@@H](C)O)NC(=O)CNC(=O)[C@H](Cc2ccc(O)cc2)NC(=O)[C@@H]2CSSC[C@@H]3NC(=O)[C@H]([C@@H](C)O)NC(=O)CNC(=O)[C@H](CC(C)C)NC(=O)[C@H](Cc4ccccc4)NC(=O)[C@@H]4CSSC[C@H](NC(=O)[C@H](CO)NC(=O)[C@H](CSSC[C@H](NC(=O)[C@H](CC(=O)O)NC(=O)[C@H](Cc5ccccc5)NC1=O)C(=O)NCC(=O)N[C@@H](CCC(=O)O)C(=O)N[C@@H](CO)C(=O)N4)NC(=O)CNC(=O)[C@H](CCCCN)NC(=O)[C@H]([C@@H](C)O)NC(=O)[C@H](Cc1ccc(O)cc1)NC3=O)C(=O)NCC(=O)N[C@@H](CCC(=O)O)C(=O)N[C@@H](Cc1c[nH]c3ccccc13)C(=O)N[C@@H](CCCCN)C(=O)N[C@@H](CC(C)C)C(=O)N2", "note": "[TRICYCLON A] (cyclo(CFLGTCYTKGCSCGEWKLCYGTNGGTIFDCGES); disulfide 1-13, 6-19, 11-30)", "values": [{"measurement": "hemolysis at 1 h, 80 µM", "setting": "[2]", "result": 2, "unit": "%"}]}
{"smiles": "CC(C)C[C@@H]1NC(=O)CNC(=O)[C@H](CC(N)=O)NC(=O)[C@H](CCCNC(=N)N)NC(=O)[C@H]([C@@H](C)O)NC(=O)[C@@H]2CSSC[C@@H]3NC(=O)[C@H]([C@@H](C)O)NC(=O)CNC(=O)CNC(=O)[C@H](C(C)C)NC(=O)[C@@H]4CSSC[C@H](NC(=O)[C@H]([C@@H](C)O)NC(=O)[C@H](CSSC[C@H](NC(=O)[C@H](C(C)C)NC(=O)[C@@H]5CCCN5C1=O)C(=O)NCC(=O)N[C@@H](CCC(=O)O)C(=O)N[C@@H]([C@@H](C)O)C(=O)N4)NC(=O)CNC(=O)[C@@H]1CCCN1C(=O)[C@H]([C@@H](C)O)NC(=O)[C@H](CC(N)=O)NC3=O)C(=O)N[C@@H](CO)C(=O)N[C@@H](Cc1c[nH]c3ccccc13)C(=O)N1CCC[C@H]1C(=O)N[C@@H](C(C)C)C(=O)N2", "note": "[KALATA B1]", "values": [{"measurement": "HC50 at 1 h", "setting": "[1]", "result": 12.7, "unit": "µM"}]}
